Patent US9593305B2, “Differentiation of pluripotent stem cells” (Janssen Biotech, Inc., priority 2008, dated 2017)

System: H1 human embryonic stem cells
Assay: Screen of CDK, GSK3 and TRK inhibitors with or without GDF-8, SOX17 and cell number (Example 20, Table 17)
Assay type: cell-based
Details: for Cell Number, Average Total Cell Number / Sox17 Expression, Average Total Intensity / Cell Number, % of positive control / Sox17 Expression, % of positive control: Plate 1; for Cell Number, % of positive control / Sox17 Expression, % of positive control: positive control = Activin A/Wnt3a
Procedure: Briefly, clusters of H1 human embryonic stem cells were grown on reduced growth factor Matrigel™ (Invitrogen; Cat #356231) coated tissue culture plastic. Cells were passaged using collagenase (Invitrogen; Cat #17104-019) treatment and gentle scraping, washed to remove residual enzyme, and plated with even dispersal at a ratio of 1:1 (surface area) on reduced growth factor […]™ (BD Biosciences; Cat #356231)-coated 96-well black plates (Packard ViewPlates; PerkinElmer; Cat #6005182) using volumes of 100 μl/well. Cells were allowed to attach and then recover log phase growth over a 1 to 3 day time period, feeding daily with MEF conditioned medium supplemented with 8 ng/ml bFGF (R&D Systems; Cat #233-FB). Plates were maintained at 37° C., 5% CO2 in a humidified box throughout the duration of assay.
Screening was conducted using the compounds described in Table 16. […] Compounds were made available as 5 mM stocks in 96-well plate format, solubilized in 100% DMSO (Sigma; Cat #D2650) and stored at −80° C. The library compounds were further diluted to an intermediate concentration of 0.2 mM in 50 mM HEPES (Invitrogen; Cat #15630-080), 20% DMSO and stored at 4° C. Test conditions were performed in triplicate, feeding on alternating days over a four-day assay period. Assay was initiated by aspirating culture medium from each well followed by three washes in PBS (Invitrogen; Cat #14190) to remove residual growth factors. On the first day of assay, test volumes of 200 μl per well were added to each well using DMEM:F12 base medium (Invitrogen; Cat #11330-032) supplemented with 0.5% FCS (HyClone; Cat #SH30070.03) and 100 ng/ml GDF-8 (R&D Systems, Cat #788-G8) plus 2.5 μM compound. A parallel set of test samples were treated in an identical manner but omitting GDF-8 from the medium. On the third day of assay, test volumes of 100 μper well were added to each well using DMEM:F12 base medium supplemented with 2% FCS plus 100 ng/ml GDF-8 (R&D Systems, Cat #788-G8). […] Positive control samples contained the same base medium supplemented with FCS and 100 ng/ml recombinant human activin A (PeproTech; Cat #120-14) throughout the four day assay along with Wnt3a (20 ng/ml) addition on days 1 and 2. Negative control samples contained DMEM:F12 base medium supplemented with FCS.
At the conclusion of four-days of culture, assay plates were washed twice with PBS (Invitrogen; Cat #14190), fixed with 4% paraformaldehyde (Alexis Biochemical; Cat #ALX-350-011) at room temperature for 20 minutes, then washed three times with PBS and permeabilized with 0.5% Triton X-100 (Sigma; Cat #T8760-2) for 20 minutes at room temperature. Cells were washed again three times with PBS and blocked with 4% chicken serum (Invitrogen; Cat #16110082) in PBS for 30 minutes at room temperature. Primary antibody (goat anti-human SOX17; R&D Systems; Cat #AF1924) was diluted 1:100 in 4% chicken serum and added to each well for one hour at room temperature. Alexa Fluor 488 conjugated secondary antibody (chicken anti-goat IgG; Molecular Probes; Cat #AZ1467) was diluted 1:200 in PBS and added to each sample well after washing three times with PBS. To counterstain nuclei, 4 μg/ml Hoechst 33342 (Invitrogen; Cat #H3570) was added for ten minutes at room temperature. Plates were washed once with PBS and left in 100 μl/well PBS for imaging.
Imaging was performed using an IN Cell Analyzer 1000 (GE Healthcare) utilizing the 51008bs dichroic for cells stained with Hoechst 33342 and Alexa Fluor 488. Exposure times were optimized from positive control wells and from untreated negative control wells stained with secondary antibody alone. Images from 15 fields per well were acquired to compensate for any cell loss during the bioassay and subsequent staining procedures. Measurements for total cell number and total SOX17 intensity were obtained from each well using IN Cell Developer Toolbox 1.7 (GE Healthcare) software. […]

[1] = compound in combination with GDF8
[2] = growth factor treatment alone, no compound

Row | Compound | SOX17 expression in the presence of GDF-8 (2.5 μM compound with 100 ng/ml GDF-8, four days) | Cell Number, Average Total Cell Number [1] | Sox17 Expression, Average Total Intensity [1] | Cell Number, % of positive control [1] | Sox17 Expression, % of positive control [1] | Cell Number, Average Total Cell Number [2] | Sox17 Expression, Average Total Intensity [2] | Cell Number, % of positive control [2] | Sox17 Expression, % of positive control [2]
1 | O=C1CCN2CCN(CC2)Cc2cc(Cl)cc(c2)Nc2ncnc(n2)-c2cncc(c2)CCCN1 [Compound 34, 5-Chloro-1,8,10,12,16,22,26,32-octaazapentacyclo[24.2.2.1˜3.7˜0.1˜9,13˜0.1˜14.18˜]tritriaconta-3(33), 4,6,9(32), 10,12,14(31), 15,17-nonaen-23-one] | induced significant SOX17 expression | 13926 | 2.6E+08 | 96.2 % of positive control | 111.8 % of positive control | – | – | – | –
2 | GDF-8: growth factor GDF-8, also known as myostatin, member of the TGF-β family | – | – | – | – | – | 2856 | 2.2E+07 | 19.7 % of positive control | 9.4 % of positive control
